Measured values as given in patent US7550135B2, “Composition for external application” (Kao Corporation, priority 2001, dated 2009).

Test: Miscibility and mixing stability in formulations
Type: physicochemical

miscibility and mixing stability (O/W cream of Example 2, 3.5%): excellent
miscibility and mixing stability (hair liquid composition of Example 4, 1.0%): excellent
miscibility and mixing stability (night cream of Example 5, 10.0%): excellent
miscibility and mixing stability (shampoo of Example 3, 2.0%): excellent
miscibility and mixing stability (skin lotion of Example 1, 1.0%): excellent
miscibility and mixing stability (sunscreen emulsion of Example 6, 3.0%): excellent
Structure (SMILES): CC(CC(=O)NCCOCCOCCNC(=O)CC(C)CC(C)(C)C)CC(C)(C)C (stereo not drawn) [Compound (K)]
